Measured values reported in paper PMC12040169 (PLOS Biology, 2025).

Experiment: in vitro
Conditions: human, hela cells, % viability

SMILES | viability at 28.5 h, 10 µM
COc1ccc2oc(-c3ccc(NC(=O)c4cccc5ccccc45)cc3)nc2c1 [CBK267610] | 110%
C=CCOc1ccc(C(=O)C2=C(O)C(=O)N(Cc3cccnc3)C2c2ccc(Cl)cc2)c(C)c1 (stereo not shown) [CBK264716] | 99.6%
O=C1c2ccccc2C(=O)N1Cc1ccc(S(=O)(=O)NCc2ccc3c(c2)OCO3)cc1 [CBK264180] | 98.3%
C[N+]1(C)CCCC1c1cc(Br)cnc1N (stereo not shown) [CBK217873I] | 90.8%
O=C(c1ccco1)N1CCN(c2cc(-c3cccnc3)ncn2)CC1 [CBK037833] | 101%
CS(=O)(=O)c1ccccc1S(=O)(=O)N1CCN(c2nc3ccccc3s2)CC1 [CBK269468] | 97.7%
NC(=O)c1ccc(C(=O)NCC2CN3CCCN2CC3)cc1 (stereo not shown) [CBK304143] | 114%
CCOc1cccc(-c2cn3ccnc3c(N(C)CCN(C)C)n2)c1 [CBK066569] | 89.7%
O=C(c1ccccc1F)N1C[C@H](c2ccsc2)[C@H]2CN(Cc3ccccc3F)CC[C@H]21 [CBK285656] | 97.4%
CCCn1cnc2cc(NC(=O)Cn3cccc(C(=O)Nc4ccc(F)cc4)c3=O)ccc21 [CBK286060] | 84.7%
CCCNC(=O)Cn1nc(C)n2c(cc3ccsc32)c1=O [CBK284061] | 78.2%
COc1cccc(CN2CCN(C(=O)c3cc(-c4ccncc4)nc4ccc(C)cc34)CC2)c1 [CBK267760] | 86%
CC(Oc1ccc2c(c1)OCO2)C(=O)NNC(=O)Nc1cccc(C(F)(F)F)c1 (stereo not shown) [CBK266922] | 87.7%
O=C(Nc1sc2c(c1C(=O)N1CCOCC1)CCCC2)c1cccs1 [CBK304649] | 92.9%
CCc1nn(CC(=O)NC(C)(C)C)c(=O)c2cc3sccc3n12 [CBK284056] | 73.8%
Cc1nc2cc(OCc3ccc(-c4nccnc4-c4nnn[nH]4)cc3)ccc2s1 [CBK050820] | 108%
Cc1nc2c(c(=O)[nH]1)CN(Cc1ccccc1F)CC2 [CBK283948] | 89.3%

SMILES | viability at 28.5 h, 10 µM
COc1cccc2c3c([nH]c12)C1(CCCN(C/C=C\c2ccccc2)C1)NCC3 (stereo not shown) [CBK040138] | 98.3%
O=C(CN1CCN(Cc2ccccc2)CC1)Nc1cccc(Cl)c1 [CBK267850] | 113%
Cc1ccc(S(=O)(=O)N2CCN(c3ccc([N+](=O)[O-])c(N4CCN(C)CC4)c3)CC2)cc1 [CBK264795] | 118%
COc1ccc(-c2cc(C[C@H]3CNCC[C@H]3CC(=O)N3CCN(C)CC3)no2)cc1 [CBK289152] | 83.8%
O=C(Cn1c(C(F)(F)F)nc2ccccc21)NCCN1CCCC1 [CBK267150] | 97.8%
O=C(O)c1ccc(NS(=O)(=O)c2ccccc2)cc1O [CBK023181] | 96.1%
Cc1ccc(-c2csc(NC(=O)c3ccccc3C(=O)O)n2)cc1 [CBK072083] | 91.9%
O=C1COc2ccccc2C/C=C/CC2(CCN(C(=O)Cn3cccn3)CC2)C(=O)NCCN1 [CBK292003] | 117%
COc1ccc(NC(=O)CSc2ncnc3sc(C)cc23)c(OC)c1 [CBK277541] | 100%
O=C(c1cccnc1)N1CCN(S(=O)(=O)c2ccccc2[N+](=O)[O-])CC1 [CBK264227] | 97%
COc1ccccc1-c1cnc2[nH]c(=O)n(Cc3ccc(F)c(Cl)c3)c2n1 [CBK064662] | 103%
O=C(c1ccno1)N1C[C@@H]2OCC(=O)N(CC3CC3)[C@@H]2C1 [CBK289680] | 83.5%
Cc1nc(N2CCN(Cc3ccc4c(c3)OCO4)CC2)c2c(C)c(C)sc2n1 [CBK266739] | 100%
Cc1ccccc1NC(=O)c1cnc2sccn2c1=O [CBK287447] | 74.9%
COC(=O)c1ccccc1NC(=O)CSc1nc(C)cc(C(F)(F)F)n1 [CBK268682] | 89.1%
Cc1ccc(C)c2c(C)c(C(=O)NCC[S+](C)[O-])[nH]c12 (stereo not shown) [CBK282484] | 76.5%
O=C(Nc1cccc2c1CCCC2)c1cnc2n(c1=O)CCS2 [CBK287379] | 105%
